In patent US9169241B2, “Quinolinyloxyphenylsulfonamides” (Max-Planck-Gesellschaft Zur Forderung der Wissenschaften …, priority 2009, dated 2015):
Like-named read-outs stand apart in the source and are kept apart here.

Tests used:
viable cells in culture = experiment: Cell viability assay at 10 μM (CellTiter-Glo, Table VII); format: cell-based; details: compound 10 μM, 72 h;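 also: graded A 0-20%; B 21-40%; C 41-60%; D over 60% viable cells relative to DMSO control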
Procedure, shortened: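 Viable cell number was measured with the CellTiter-Glo Luminescent Cell Viability Assay (Promega), following the manufacturer's protocol, which quantifies ATP as a marker of metabolically active cells. In 96-well plates, 1000 cells/well in 100 μl medium were exposed to compound at 10 μM, or to DMSO control, for 72 h. Values were calculated relative to DMSO-control ATP.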

indicated cell line = experiment: Wound healing migration assay (Table IV); format: cell-based; details: compounds at 12.5, 6.25, 3.125 μM, 48 h-72 h
Protocol: This method mimics cell migration during wound healing in vivo. The basic steps involve creating a “wound” in a cell monolayer, capturing the images at the beginning and at regular intervals during cell migration to close the wound, and comparing the images to quantify the migration rate of the cells. In detail, 150000 cell/24 well have been seeded and allowed to form a monolayer overnight. Subsequently a “wound” or “scratch” has been performed with a 1000 μl pipette tip. The STDV of wound size is normally below 10% at time point t0. The assay was stopped by fixation with 0.05% Crystal violet/20% methanol when control scratches were closed. The assay was terminated between 48 h and 72 h depending on the migration potential of the indicated cell line. The “wounds” were visualized with a Zeiss Axiovert S100 microscope (Carl Zeiss UK, Welwyn Garden City, UK). The tested compounds were used at 12.5 μM, 6.25, 3.125 μM and DMSO control. IC50 values have been calculated as 50% wound size in between t0 and t48 or t72.

Hs578T [1] = experiment: Matrigel outgrowth assay/branching assay; format: cell-based; details: Homo sapiens, Hs-578T; HS578T cell line; Table Ib; read-out: Total branching inhibition in Matrigel HS578T
Procedure, shortened: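 Step one: Matrigel (3 mg/ml) is set for 1 h at 37° C. Step two: 5000 cells per well go on in medium with compound (0.78–3.125 μM) or DMSO. Step three: images at 48, 72 and 96 h are scored for complete loss of branching.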

cells = experiment: Boyden chamber migration assay (Table VI); format: cell-based; details: Homo sapiens, Hs-578T, 16 h, Hs578T cells; 16 h migration
Protocol: The Boyden chamber assay is based on a chamber of two medium-filled compartments separated by a microporous membrane of 8 μM (Cell culture insert 8.0 μM pore size, BD Biosciences, Bedford, Mass.). The boyden chamber migration assays were carried out according to the supplier's instructions. In general, 20000 cells are placed in the upper compartment with medium containing 0% FCS plus 0.1% BSA and are allowed to migrate 16 h through the pores of the membrane into the lower compartment, which is filled with cell culture medium containing 10% FCS as chemotactic agents. The cells remaining in the insert were removed with a cotton swab, and the cells on the bottom of the filter were fixed and counted. (Zhang Y X, et al. AXL is a potential target for therapeutic intervention in breast cancer progression. Cancer Res. 2008; 68:1905-15).

Hs578T [2] = experiment: Apoptosis assay (Cellomics, nucleus condensation); format: cell-based; details: Homo sapiens, Hs-578T, Table III, read-out: Apoptosis induction in Hs578T
From the text: (§1) The Cellomics BioApplication (Thermo Fischer Cellomics Products, Pittsburgh, Pa.) is an automated image analysis algorithm that provides detailed analysis of phenotypes related to apoptosis. As one of the most prominent characteristics of apoptotics cell a nucleus condensation takes place. This can be measured fluorescence signal intensity using a CCD camera on fully automated microscope system. The Cellomics system is able to quantify the fluorescence intensity per single nucleus and calculates the variation of signal intensity in each cell population. […] Additionally the number of detected cell decreases normally in apoptotic cell populations. In detail 5000 cell per 96 well were labeled with DNA intercalating dye (Hoechst 33342, Sigma, Steinheim, Germany) to visualize the nucleus in a fluorescence microscope under live conditions. The apoptosis assay was performed 24 h and 48 h after addition of compound at concentrations 12.5 μM, 6.25 μM, 3.125 μM, 1.56 μM, 0.78 μM, 0.39 μM as well as DMSO control for 48 h.

U118 = experiment: Apoptosis assay (Cellomics, nucleus condensation); format: cell-based; details: Table III, read-out: Apoptosis induction in U118
From the text: as §1

SF126 = experiment: Apoptosis assay (Cellomics, nucleus condensation); format: cell-based; details: Homo sapiens, SF-126, Table III, read-out: Apoptosis induction in SF126
From the text: as §1

SF763 = experiment: Apoptosis assay (Cellomics, nucleus condensation); format: cell-based; details: Table III, read-out: Apoptosis induction in SF763
From the text: as §1

C8161 = experiment: Apoptosis assay (Cellomics, nucleus condensation); format: cell-based; details: Homo sapiens, Table III, read-out: Apoptosis induction in C8161
From the text: as §1

U138 = experiment: Apoptosis assay (Cellomics, nucleus condensation); format: cell-based; details: Table III, read-out: Apoptosis induction in U138
From the text: as §1

tumor cell = experiment: Matrigel outgrowth assay/branching assay (Table Va); format: cell-based
Protocol: The Matrigel outgrowth assay is based on the ability of tumor cell to penetrate a solid gel of extracellular matrix proteins mimicking the metastasis formation in vivo. While cells with low invasive potential appear as roundish cell or cell cluster, cells with high invasive potential penetrate the Matrigel and form polymorphic structures. In detail 65 μl of Matrigel matrix (Matrigel™ Matrix, BD Biosciences, Bedford, Mass., USA) with a concentration of 3 mg/ml have been polymerized in 96 well plates for 1 h at 37° C. Subsequently 5000 cell/well were seeded into each well containing cell culture medium and indicated compound with concentrations of 3.125 μM, 1.56 μM and 0.78 μM as well as DMSO control. After 48 h, 72 h and 96 h images of cell were taken on an inverted microscope using a 5× objective (Zeiss Axiovert S100 microscope Carl Zeiss UK, Welwyn Garden City, UK). Only compound concentrations were total branching inhibition was evident were accounted as positive. Method was used as previously described, with some modifications (Thompson E W, et al. Association of increased basement membrane invasiveness with absence of estrogen receptor and expression of vimentin in human breast cancer cell lines. J Cell Physiol 1992; 150:534-44).

[3] = Homo sapiens, HCT-116, HCT116 def, read-out: percentage (%) of viable cells HCT 116def
[4] = Homo sapiens, HCT-116, HCT116 wt, read-out: percentage (%) of viable cells HCT 116wt
[5] = Homo sapiens, HT-29, HT29, read-out: percentage (%) of viable cells HT29
[6] = Homo sapiens, NCI-H358, H358, read-out: percentage (%) of viable cells H358
[7] = Homo sapiens, NCI-H1650, H1650, read-out: percentage (%) of viable cells H1650
[8] = Homo sapiens, NCI-H1666, H1666, read-out: percentage (%) of viable cells H1666
[9] = Homo sapiens, NCI-H1975, H1975, read-out: percentage (%) of viable cells H1975
[10] = Homo sapiens, NCI-H1993, H1993, read-out: percentage (%) of viable cells H1993
[11] = Homo sapiens, A549, read-out: percentage (%) of viable cells A549
[12] = Homo sapiens, HCC827, read-out: percentage (%) of viable cells HCC827
[13] = Homo sapiens, SW480, read-out: percentage (%) of viable cells SW480
[14] = RKO, read-out: percentage (%) of viable cells RKO
[15] = Homo sapiens, C8161 cells, read-out: IC50 Wound healing Assay C8161
[16] = SF763 cells, read-out: IC50 Wound healing Assay SF763
[17] = Homo sapiens, C8161 cells, read-out: Total branching inhibition in Matrigel C8161
[18] = Homo sapiens, Hs-578T, Hs578T cells, read-out: Total branching inhibition in Matrigel Hs578T
[19] = U118 cells, read-out: Total branching inhibition in Matrigel U118
[20] = U138 cells, read-out: Total branching inhibition in Matrigel U138

SMILES | viability at 10 µM (viable cells in culture; [3]) | viability at 10 µM (viable cells in culture; [4]) | viability at 10 µM (viable cells in culture; [5]) | viability at 10 µM (viable cells in culture; [6]) | viability at 10 µM (viable cells in culture; [7]) | viability at 10 µM (viable cells in culture; [8]) | viability at 10 µM (viable cells in culture; [9]) | viability at 10 µM (viable cells in culture; [10]) | viability at 10 µM (viable cells in culture; [11]) | viability at 10 µM (viable cells in culture; [12]) | viability at 10 µM (viable cells in culture; [13]) | viability at 10 µM (viable cells in culture; [14]) | IC50 (indicated cell line; [15]) | melting point | IC50 (Hs578T [1]) | IC50 (cells) | IC50 (Hs578T [2]) | IC50 (U118) | IC50 (SF126) | IC50 (SF763) | further results
COc1cc2c(Oc3ccc(NS(=O)(=O)c4ccc(Cl)cc4F)cc3F)ccnc2cc1OCCCN1CCN(C)CC1 [Example 27, 4-Chloro-2-fluoro-N-(3-fluoro-4-{6-methoxy-7-[3-(4-methyl-piperazin-1-yl)-propoxy]-quinolin-4-yloxy}-phenyl)-benzenesulfonamide] | 0 to 20% | 0 to 20% | 21 to 40% | 0 to 20% | 41 to 60% | 41 to 60% | 21 to 40% | 0 to 20% | > 60% | > 60% | 0 to 20% | 0 to 20% | 12.5 to 50 µM | 106 to 110 °C | ≤ 10 µM | ≤ 5 µM | ≤ 12.5 µM | ≤ 12.5 µM | 12.5 to 50 µM | ≤ 12.5 µM | IC50 (indicated cell line; [16]): ≤ 12.5 µM; IC50 (C8161): ≤ 12.5 µM; IC50 (U138): ≤ 12.5 µM; IC50 (tumor cell; [17]): ≤ 5 µM; IC50 (tumor cell; [18]): ≤ 5 µM; IC50 (tumor cell; [19]): ≤ 5 µM; IC50 (tumor cell; [20]): ≤ 5 µM
COc1cc2c(Oc3ccc(NS(=O)(=O)c4cc(Cl)cc(Cl)c4OC)cc3F)ccnc2cc1OCCCN1CCCC(C)C1 (centres unmarked) [Example 75, 3,5-Dichloro-N-(3-fluoro-4-{6-methoxy-7-[3-(3-methyl-piperidin-1-yl)-propoxy]-quinolin-4-yloxy}-phenyl)-2-methoxy-benzenesulfonamide] | 21 to 40% | 21 to 40% | 0 to 20% | 0 to 20% | 21 to 40% | 41 to 60% | 0 to 20% | 21 to 40% | > 60% | > 60% | 0 to 20% | 0 to 20% | 12.5 to 50 µM | 145 to 146 °C | ≤ 10 µM | ≤ 5 µM | ≤ 12.5 µM | ≤ 12.5 µM | ≤ 12.5 µM | ≤ 12.5 µM | IC50 (C8161): ≤ 12.5 µM; IC50 (U138): ≤ 12.5 µM; IC50 (tumor cell; [17]): ≤ 5 µM; IC50 (tumor cell; [18]): ≤ 5 µM; IC50 (tumor cell; [19]): ≤ 5 µM; IC50 (tumor cell; [20]): 5 to 50 µM
COc1cc2c(Oc3ccc(NS(=O)(=O)c4cc(F)ccc4F)cc3F)ccnc2cc1OCCCCN1CCOCC1 [Example 83, 2,5-Difluoro-N-{3-fluoro-4-[6-methoxy-7-(4-morpholin-4-yl-butoxy)-quinolin-4-yloxy]-phenyl}-benzenesulfonamide] | 21 to 40% | 0 to 20% | 0 to 20% | 0 to 20% | 21 to 40% | 21 to 40% | 41 to 60% | 0 to 20% | 21 to 40% | 0 to 20% | 21 to 40% | > 60% | ≤ 12.5 µM | 156 to 158 °C | ≤ 10 µM | ≤ 5 µM | ≤ 12.5 µM | ≤ 12.5 µM | ≤ 12.5 µM | ≤ 12.5 µM | IC50 (indicated cell line; [16]): ≤ 12.5 µM; IC50 (C8161): ≤ 12.5 µM; IC50 (U138): ≤ 12.5 µM; IC50 (tumor cell; [17]): ≤ 5 µM; IC50 (tumor cell; [18]): ≤ 5 µM; IC50 (tumor cell; [19]): ≤ 5 µM; IC50 (tumor cell; [20]): ≤ 5 µM
COc1cc(S(=O)(=O)Nc2ccc(Oc3ccnc4cc(OCCCN5CCN(C)CC5)c(OC)cc34)c(F)c2)ccc1F [Example 18, 4-Fluoro-N-(3-fluoro-4-{6-methoxy-7-[3-(4-methyl-piperazin-1-yl)-propoxy]-quinolin-4-yloxy}-phenyl)-3-methoxy-benzenesulfonamide] | 0 to 20% | 0 to 20% | 0 to 20% | 0 to 20% | 21 to 40% | 21 to 40% | 0 to 20% | 0 to 20% | 21 to 40% | 21 to 40% | 0 to 20% | 0 to 20% | ≤ 12.5 µM | 167 to 169 °C | ≤ 10 µM | ≤ 5 µM | ≤ 12.5 µM | ≤ 12.5 µM | ≤ 12.5 µM | ≤ 12.5 µM | IC50 (indicated cell line; [16]): 12.5 to 50 µM; IC50 (C8161): ≤ 12.5 µM; IC50 (U138): ≤ 12.5 µM; IC50 (tumor cell; [17]): ≤ 5 µM; IC50 (tumor cell; [18]): ≤ 5 µM; IC50 (tumor cell; [19]): ≤ 5 µM; IC50 (tumor cell; [20]): ≤ 5 µM
